{"source": "patent US20240091324A1", "about": "“GASTROINTESTINAL HEALTH COMPOSITION” (priority 2019, published 2024)", "type_in_all_cases": "cell-based, human", "key": {"Enterocyte": {"test_system": "Enterocyte", "assay": "Observed therapeutic effective dose determined in the in vitro experiments (Table 4)", "procedure": "(§1) The observed therapeutic effective dose was determined in the in vitro experiments described herein.\n(§2) Table 4 summarises the observed therapeutic effective dose for each GaRP formulation component."}, "Macrophage": {"test_system": "Macrophage", "assay": "Observed therapeutic effective dose determined in the in vitro experiments (Table 4)", "procedure": "as §1, §2"}, "[1]": {"test_system": "IL-8 release from Caco-2 monolayers", "assay": "Release of IL-8 from polarised Caco-2 monolayers stimulated with LPS, TNF-α, IFN-β", "procedure": "Inflammatory model of Caco-2 polarised monolayer stimulated with inflammatory mediators LPS, TNF-α, IFN-β: Polarised Caco-2 models were generated as previously described. When cell cultures reached a baseline TER of >1000/cm^2, the monolayers were stimulated by addition of 0.6 ml containing 50 ng/ml IFN-β, 10 μg/ml LPS and 5 ng/ml TNFα to the basolateral compartment. Immediately after the addition of the stimulation cocktail 0.25 ml of GaRP±0-80 μg/ml bromelain was applied to the apical compartment. After the 24 h incubation culture supernatants from the apical side were collected for quantitation of IL-8.\nThe human colorectal adenocarcinoma cell-line C2BBe1 was grown and maintained in Dulbecco's modified Eagle's medium (DMEM) supplemented with 10% v/v fetal bovine serum (FBS), 4 mM L-glutamine, 100 U/ml penicillin and […] streptomycin. All experiments were conducted on C2BBe1 cells within 12 passages after thawing.\nIn an experiment to evaluate the anti-inflammatory effect of bromelain or various GaRP formulations, 0.25 ml of test samples was applied to the apical side for 24 h, at the same time 0.6 ml of a cocktail containing 50 ng/ml IFN+10 ug/ml LPS+5 ng/ml TNF was added to the basolateral side in this model. After the 24 h incubation culture supernatants from the apical side were collected and IL-8 quantitated by ELISA."}}}
{"smiles": "C[C@@H](O)[C@H](N)C(=O)O", "note": "[L-threonine]", "values": [{"measurement": "observed therapeutic effective dose, Target cell Enterocyte (pg/cell)", "setting": "Enterocyte", "result": 15, "unit": "pg/cell"}, {"measurement": "observed therapeutic effective dose, Target cell Macrophage (pg/cell)", "setting": "Macrophage", "result": 300, "unit": "pg/cell"}, {"measurement": "% inhibition of the release of IL-8 Median ± SEM", "setting": "[1]; formulation or component plus 80 ug/ml bromelain, 24 h", "result": "73 ± 11", "unit": "%"}, {"measurement": "% increase in anti-inflammatory activity compared to equivalent formulation without bromelain (difference of means)", "setting": "[1]; plus 80 ug/ml bromelain", "result": 55, "unit": "%"}, {"measurement": "% inhibition of the release of IL-8 Median ± SEM", "setting": "[1]; without bromelain, test sample apical 24 h, IFN+LPS+TNF cocktail basolateral", "result": "18 ± 1", "unit": "%"}]}
